This note sets out measurements from patent US20220372014A1, “NEUROPROTECTIVE COMPOUNDS AND METHODS OF USE THEREOF” (The Johns Hopkins University, priority 2019, published 2022).

Experiment [1] concerns HeLa cells or neuronal cells. In words: Cell death assay of Example 3 (MNNG, alamarBlue; protection against parthanatos, Table 4). Type of experiment: cell-based. Conditions: 1 μM test compound; for (%) inhibition of cell death: MNNG-induced cell death, alamarBlue. In short, it runs like this:
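HeLa or neuronal cells (1×10^4/well) were pretreated 1 h at 37° C with 1 μM compound, exposed to MNNG for 15 min, washed, then re-incubated 18 h with 1 μM compound. Viability was read by alamarBlue fluorescence (ex 560/em 590 nm). Cell death was expressed relative to control wells.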

In the next experiment the target is T1, MIF (Homo sapiens, UniProt P14174).
T1 sequence (P14174 1-115): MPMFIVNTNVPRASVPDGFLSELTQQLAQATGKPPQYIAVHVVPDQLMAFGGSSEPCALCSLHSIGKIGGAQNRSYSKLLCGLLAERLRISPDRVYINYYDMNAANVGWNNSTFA
In words: Nuclease assay of Example 3 (MIF inhibitory activity, Table 4). The following applies: for (%) inhibition of MIF nuclease activity: nuclease assay of Example 3. It is filed as biochemical. Also on record: (%) inhibition of MIF nuclease activity: concentration or dose not given beside the values. In short, it runs like this: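 Human genomic DNA (200 ng), pcDNA (200 ng) or PS^30-type substrates (1 μM) were incubated with MIF (0.25-8 μM final) in 10 mM Tris-HCl pH 7.0, 10 mM MgCl2, 1 mM DTT at 37 °C for 1 h (pcDNA, small substrates) or 4 h (genomic DNA). Cleavage was assessed by agarose or PAGE electrophoresis with EtBr staining and chemiluminescent detection of biotin-labelled DNA.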

Turning to `COc1cc(F)c(CC[C@H]2OC(=O)[C@@H]3CCCCN3C(=O)C(=O)C(C)(C)COC(=O)C=CCCN(C)C(=O)[C@@H]3CCCN3C(=O)[C@H](COC(C)(C)C)N(C)C(=O)C(c3ccccc3)NC(=O)[C@H](C)N(C)C(=O)COc3cccc2c3)cc1OC` (some centres unmarked) [compound 109], the “(%) inhibition of cell death” value in experiment [1] was determined as 52.9%. Besides, the “(%) inhibition of MIF nuclease activity” value at MIF is reported as 9.3%.
For `COc1cc(F)c(CCC2OC(=O)[C@@H]3CCCCN3C(=O)C(=O)C(C)(C)COC(=O)C=CCCN(C)C(=O)[C@@H]3CCCN3C(=O)[C@H](COC(C)(C)C)N(C)C(=O)C(c3ccccc3)NC(=O)[C@H](C)N(C)C(=O)COc3cccc2c3)cc1OC` (some centres unmarked) [compound 110], in that order: 59.3% and 20.9%.
For `COc1cc(CC[C@H]2OC(=O)[C@@H]3CCCCN3C(=O)C(=O)C(C)(C)COC(=O)C=CCCN(C)C(=O)[C@@H]3CCCN3C(=O)[C@H](COC(C)(C)C)N(C)C(=O)C(c3ccccc3)NC(=O)[C@H](C)N(C)C(=O)COc3cccc2c3)cc(F)c1OC` (some centres unmarked) [compound 111], in that order: 48.9% and 6.8%.
Consider `COc1ccc(CC[C@H]2OC(=O)[C@@H]3CCCCN3C(=O)C(=O)C(C)(C)COC(=O)C=CCCN(C)C(=O)[C@@H]3CCCN3C(=O)[C@H](COC(C)(C)C)N(C)C(=O)C(c3ccccc3)NC(=O)[C@H](C)N(C)C(=O)COc3ccc(F)c2c3)cc1OC` (some centres unmarked) [compound 112], for which the “(%) inhibition of cell death” value in experiment [1] was 48.3%. Also, on MIF, the “(%) inhibition of MIF nuclease activity” value came to 19.2%.
`COc1cc(CC[C@H]2OC(=O)[C@@H]3CCCCN3C(=O)C(=O)C(C)(C)COC(=O)C=CCCN(C)C(=O)[C@@H]3CCCN3C(=O)[C@H](COC(C)(C)C)N(C)C(=O)C(c3ccccc3)NC(=O)[C@H](C)N(C)C(=O)COc3cccc2c3)c(OC)c(OC)c1` (some centres unmarked) [compound 113]: in experiment [1], the “(%) inhibition of cell death” value was found to be 66.1%. In addition, the “(%) inhibition of MIF nuclease activity” value at MIF is 26.8%.
With `COc1ccc(CC[C@H]2OC(=O)[C@@H]3CCCCN3C(=O)C(=O)C(C)(C)COC(=O)C=CCCN(C)C(=O)[C@@H]3CCCN3C(=O)[C@H](COC(C)(C)C)N(C)C(=O)C(c3ccccc3)NC(=O)[C@H](C)N(C)C(=O)COc3cc2ccc3F)cc1OC` (some centres unmarked) [compound 114], the “(%) inhibition of cell death” value in experiment [1] came out at 44.9%. Further, the “(%) inhibition of MIF nuclease activity” value on MIF was −2.4%.
On to `COc1cc(CC[C@H]2OC(=O)[C@@H]3CCCCN3C(=O)C(=O)C(C)(C)COC(=O)C=CCCN(C)C(=O)[C@@H]3CCCN3C(=O)[C@H](COC(C)(C)C)N(C)C(=O)C(c3ccccc3)NC(=O)[C@H](C)N(C)C(=O)COc3cccc2c3)cc(OC)c1OC` (some centres unmarked) [compound 115], for which the “(%) inhibition of cell death” value in experiment [1] came to 47.9%. For the same compound, at MIF, the “(%) inhibition of MIF nuclease activity” value is recorded as 8.7%.
On to `COc1cc(O)c(CC[C@H]2OC(=O)[C@@H]3CCCCN3C(=O)C(=O)C(C)(C)COC(=O)C=CCCN(C)C(=O)[C@@H]3CCCN3C(=O)[C@H](COC(C)(C)C)N(C)C(=O)C(c3ccccc3)NC(=O)[C@H](C)N(C)C(=O)COc3cccc2c3)cc1OC` (some centres unmarked) [compound 116], for which the “(%) inhibition of cell death” value in experiment [1] worked out at 50.9%. For the same compound, the “(%) inhibition of MIF nuclease activity” value at MIF is on record as −4.7%.
The matching figures for `COc1ccc(CC[C@H]2OC(=O)[C@@H]3CCCCN3C(=O)C(=O)C(C)(C)COC(=O)C=CCCN(C)C(=O)[C@@H]3CCCN3C(=O)[C@H](COC(C)(C)C)N(C)C(=O)C(c3ccccc3)NC(=O)[C@H](C)N(C)C(=O)COc3cccc2c3)c(F)c1OC` (some centres unmarked) [compound 117]: 51.8% and −5.1%.
For `COc1ccc(CC[C@H]2OC(=O)[C@@H]3CN(C)CCN3C(=O)C(=O)C(C)(C)COC(=O)C=CCCN(C)C(=O)[C@@H]3CCCN3C(=O)[C@H](COC(C)(C)C)N(C)C(=O)C(c3ccccc3)NC(=O)[C@H](C)N(C)C(=O)COc3cccc2c3)cc1OC` (some centres unmarked) [compound 118], in that order: 50.8% and 9.0%.
For the compound `COc1ccc(CC[C@H]2OC(=O)[C@@H]3CCCCN3C(=O)C(=O)C(C)(C)COC(=O)C=CCCN(C)C(=O)[C@@H]3CCCN3C(=O)[C@H](COC(C)(C)C)N(C)C(=O)C(c3ccccc3)NC(=O)[C@H](C)N(C)C(=O)COc3cccc2c3)c(O)c1OC` (some centres unmarked) [compound 119], in experiment [1], the “(%) inhibition of cell death” value amounted to 60.7%. For the same compound, the “(%) inhibition of MIF nuclease activity” value on MIF was 19.7%.
For `COc1cc(CC[C@H]2OC(=O)[C@@H]3CCCCN3C(=O)C(=O)C(C)(C)COC(=O)C=CCCN(C)C(=O)[C@@H]3CCCN3C(=O)[C@H](COC(C)(C)C)N(C)C(=O)C(c3ccccc3)NC(=O)[C@H](C)N(C)C(=O)COc3cccc2c3)cc(O)c1OC` (some centres unmarked) [compound 120], the “(%) inhibition of cell death” value in experiment [1] was 45.8%. Also, the “(%) inhibition of MIF nuclease activity” value on MIF amounted to 7.1%.
`COc1cc(OC)c(OC)cc1CC[C@H]1OC(=O)[C@@H]2CCCCN2C(=O)C(=O)C(C)(C)COC(=O)C=CCCN(C)C(=O)[C@@H]2CCCN2C(=O)[C@H](COC(C)(C)C)N(C)C(=O)C(c2ccccc2)NC(=O)[C@H](C)N(C)C(=O)COc2cccc1c2` (some centres unmarked) [compound 122]: in experiment [1], the “(%) inhibition of cell death” value worked out at 64.3%. Besides, the “(%) inhibition of MIF nuclease activity” value at MIF was 10.7%.
Turning to `COc1ccc(OC)c(OC)c1CC[C@H]1OC(=O)[C@@H]2CCCCN2C(=O)C(=O)C(C)(C)COC(=O)C=CCCN(C)C(=O)[C@@H]2CCCN2C(=O)[C@H](COC(C)(C)C)N(C)C(=O)C(c2ccccc2)NC(=O)[C@H](C)N(C)C(=O)COc2cccc1c2` (some centres unmarked) [compound 123], in experiment [1], the “protection against parthanatos (cell death)” value was “protect against parthanatos” and the “(%) inhibition of cell death” value is 82.4%. Besides, at MIF, the “MIF nuclease activity” value is on record as “do not inhibit MIF nuclease activity” and the “(%) inhibition of MIF nuclease activity” value is given as −5.1%.
Turning to `COc1ccc(CC[C@H]2OC(=O)[C@@H]3CCCCN3C(=O)C(=O)C(C)(C)COC(=O)C=CCCN(C)C(=O)[C@@H]3CCCN3C(=O)[C@H](COC(C)(C)C)N(C)C(=O)C(c3ccccc3)NC(=O)[C@H](C)N(C)C(=O)COc3cccc2c3)c(OC)c1OC` (some centres unmarked) [compound 124], the “(%) inhibition of cell death” value in experiment [1] came out at 55.9%. In addition, at MIF, the “(%) inhibition of MIF nuclease activity” value is on record as −2.7%.
For the compound `COc1ccc(CC[C@H]2OC(=O)[C@@H]3CCCCN3C(=O)C(=O)C(C)(C)COC(=O)C=CCCN(C)C(=O)[C@@H]3CCCN3C(=O)[C@H](COC(C)(C)C)N(C)C(=O)C(c3ccccc3)NC(=O)[C@H](C)N(C)C(=O)COc3cccc2c3F)cc1OC` (some centres unmarked) [compound 125], in experiment [1], the “protection against parthanatos (cell death)” value is on record as “protect against parthanatos” and the “(%) inhibition of cell death” value was 63.4%. Besides, at MIF, the “MIF nuclease activity” value is on record as “do not inhibit MIF nuclease activity” and the “(%) inhibition of MIF nuclease activity” value was determined as 2.4%.
On to `COc1ccc(CC[C@H]2OC(=O)[C@@H]3CCCCN3C(=O)C(=O)C(C)(C)COC(=O)C=CCCN(C)C(=O)[C@@H]3CCCN3C(=O)[C@H](COC(C)(C)C)N(C)C(=O)C(c3ccccc3)NC(=O)[C@H](C)N(C)C(=O)COc3cncc2c3)cc1OC` (some centres unmarked) [compound 126], for which, in experiment [1], the “(%) inhibition of cell death” value turned out to be 46.8%. In addition, the “(%) inhibition of MIF nuclease activity” value at MIF is recorded as 6.7%.
For `COc1ccc(CC[C@H]2OC(=O)[C@@H]3CN(C(=O)OCC4c5ccccc5-c5ccccc54)CCN3C(=O)C(=O)C(C)(C)COC(=O)C=CCCN(C)C(=O)[C@@H]3CCCN3C(=O)[C@H](COC(C)(C)C)N(C)C(=O)C(c3ccccc3)NC(=O)[C@H](C)N(C)C(=O)COc3cccc2c3)cc1OC` (some centres unmarked) [compound 127], the “(%) inhibition of cell death” value in experiment [1] is 46.4%. In addition, on MIF, the “(%) inhibition of MIF nuclease activity” value is recorded as 5.0%.
The matching figures for `COc1ccc(CC[C@H]2OC(=O)[C@@H]3CNCCN3C(=O)C(=O)C(C)(C)COC(=O)C=CCCN(C)C(=O)[C@@H]3CCCN3C(=O)[C@H](COC(C)(C)C)N(C)C(=O)C(c3ccccc3)NC(=O)[C@H](C)N(C)C(=O)COc3cccc2c3)cc1OC` (some centres unmarked) [compound 128]: 47.4% and 11.0%.
Turning to `C=CC(=O)OCC(C)(C)C(=O)C(=O)N1CCCC[C@H]1C(=O)O[C@H](CCc1ccc(OC)c(OC)c1)c1cncc(OCC(=O)N(C)[C@@H](C)C(=O)NC(C(=O)N(C)[C@@H](COC(C)(C)C)C(=O)N2CCC[C@H]2C(=O)N(C)CC/C=C\CCO)c2ccccc2)c1` (some centres unmarked) [compound 129], the “(%) inhibition of cell death” value in experiment [1] is 43.0%. In addition, on MIF, the “(%) inhibition of MIF nuclease activity” value was found to be 29.5%.
The matching figures for `COc1ccc(CC[C@H]2OC(=O)[C@@H]3CCCCN3C(=O)C(=O)C(C)(C)COC(=O)C=CCCN(C)C(=O)[C@@H]3CCCN3C(=O)[C@H](COC(C)(C)C)N(C)C(=O)C(c3ccccc3)N(C)C(=O)[C@H](C)NC(=O)COc3cccc2c3)cc1OC` (some centres unmarked) [compound 137]: 44.5% and 9.4%.
For `COc1ccc(CC[C@H]2OC(=O)[C@@H]3CCCCN3C(=O)C(=O)C(C)(C)COC(=O)C=CCCN(C)C(=O)[C@@H]3CCCN3C(=O)[C@H](COC(C)(C)C)N(C)C(=O)[C@H](Cc3ccccc3)N(C)C(=O)[C@H](C)NC(=O)COc3cccc2c3)cc1OC` [compound 138], in that order: 47.0% and −4.8%.
The matching figures for `COc1ccc(CC[C@H]2OC(=O)[C@@H]3CCCCN3C(=O)C(=O)C(C)(C)COC(=O)C=CCCN(C)C(=O)[C@@H]3CCCN3C(=O)[C@H](COC(C)(C)C)N(C)C(=O)[C@H](COC(C)(C)C)NC(=O)[C@H](C)N(C)C(=O)COc3cccc2c3)cc1OC` [compound 140]: 51.0% and 0.0%.
